Data reported in patent US20070191437A1, “Continuous Dosing Regimen” (priority 2003, published 2007).
Marks after values point to notes of the source that are not given here.

Legend:
[1] = tested on: MDA-MB-468 breast; assay: MDA-MB-468 breast subcutaneous flank xenografts in female nude mice, HPM with docetaxel (Example 3); assay type: in vivo; conditions: 33.3 mg/kg/day i.v., q.d × 1
Method: Tumor cells derived from serially passaged tumor fragments were inoculated s.c. in female nude mice on day 0. On day 10, mice bearing established tumors were size matched at about 231 mm^3 and divided into the following groups:
1. HPM at 100 mg/kg/day (p.o., q.d., 5 days on, 5 days off ×2)
2. HPM at 75 mg/kg/day (p.o., q.d., 5 days on, 5 days off ×2)
3. HPM at 0 mg/kg/day (p.o., q.d., 5 days on, 5 days off ×2)
4. Docetaxel at 33.3 mg/kg/day (i.v., q.d. ×1)
5. Docetaxel at 0 mg/kg/day (i.v., q.d. ×1)
6. Combination therapy: HPM at 100 mg/kg/day and docetaxel at 33.3 mg/kg/day
7. Combination therapy: HPM at 75 mg/kg/day and docetaxel at 33.3 mg/kg/day

[2] = Calu-6 flank xenograft model in male scid mice, HPM with docetaxel (Example 1); assay type: in vivo; conditions: male, scid, mouse, in vivo
Method: (§1) Male scid mice (Charles River Labs.) were injected subcutaneously with 0.2 mL of 2×10^6 Calu-6 cells (1:1 with matrigel) on study day 0. The cellular implantation site was the right flank, and all mice were ear tagged. On day 13, tumors were size matched to 247 mm^3 and animals were placed into the therapy groups outlined in the study design below. All treatments were initiated on day 13 post tumor inoculation. The tumors were measured with calipers 2 times per week after tumors were palpable. Tumor volumes were calculated according to the formula V=L×W^2/2 (V: volume, mm^3; L: length, mm. W: width, mm). Mouse group weights were taken 2 times per week to monitor weight loss from toxicity or excessive tumor burden. The mice were humanely euthanized when the tumor volumes reached a predetermined size. The study design was as follows:
(§2) 1. HPM vehicle and docetaxel at 20 mg/kg/day.
(§3) 2. HPM vehicle and docetaxel at 10 mg/kg/day.
(§4) 3. HPM at 100 mg/kg/day and docetaxel vehicle.
(§5) 4. HPM at 75 mg/kg/day and docetaxel vehicle.
(§6) 5. HPM at 100 mg/kg/day and docetaxel at 20 mg/kg/day.
(§7) 6. HPM at 100 mg/kg/day and docetaxel at 10 mg/kg/day.
(§8) 7. HPM at 75 mg/kg/day and docetaxel at 20 mg/kg/day.
(§9) 8. HPM at 75 mg/kg/day and docetaxel at 10 mg/kg/day.
(§10) 9. HPM vehicle and docetaxel vehicle.
(§11) HPM was dosed orally on a (q.d.×5, 5 days off)×2 schedule. The drug was formulated in 1% HCl, 4% ethanol, and 95% D5W. Docetaxel was dosed intravenously, (q.10d.)×2 and formulated in saline.

[3] = tested on: Calu-6 cells; assay: as above; assay type: in vivo; conditions: docetaxel q.10d. at 20 mg/kg/day
Method: as §1, §2, §3, §4, §5, §6, §7, §8, §9, §10, §11

[4] = tested on: HCT-15 human colon carcinoma; assay: HCT-15 human colon carcinoma xenografts; assay type: in vivo; conditions: for efficacy in inhibiting tumor growth: MDR positive line
Excerpt: HCT-15 is a human colon carcinoma derived cell line. It is MDR positive, and expresses both mutant p53 and oncogenic K-ras. The HCT-15 cell line has one of the highest levels of mdr-1/P-glycoprotein expression of cells from the NCI tumor cell line panel.

[5] = tested on: M5076 murine reticulum cell sarcoma; conditions: for ILS / response of the model to the drug: comparator drugs, dose not given
[6] = tested on: NCI-H460 human non-small cell lung carcinoma; assay: NCI-H460 xenograft model; assay type: in vivo; conditions: for activity: comparators
Excerpt: NCI-H460 is a human non-small cell lung carcinoma derived cell line. It is MDR negative, has wild type p53, and contains an oncogenic K-ras mutation.

[7] = Clinical 7-day QD regimen, MTD determination; assay type: in vivo
Method: In the 7-day QD regimen, the 250 mg QD dose has been determined to be the MTD, as dose limiting toxicities of peripheral neuropathy/ileus were reported in 2 of 6 subjects at the 300 mg QD dose.

[8] = tested on: MiaPaCa2 pancreatic; assay: MiaPaCa2 pancreatic xenograft model, combination with gemcitabine; assay type: in vivo; conditions: in combination with gemcitabine
[9] = tested on: MDA-MB-468 breast carcinoma; assay: Staged human tumor xenograft, MDA-MB-468; assay type: in vivo
Excerpt: (§12) (2-((hydroxyphenyl)amino)pyrid-3-yl)-4-methoxybenzenesulfonamide inhibited the growth of a variety of human tumor xenografts that were allowed to grow into established tumors prior to the initiation of treatment. As summarized below, activity was seen against established tumors derived from colon, breast and lung carcinomas. (2-((4-hydroxyphenyl)amino)pyrid-3-yl)-4-methoxybenzenesulfonamide was also active against a human pancreatic tumor xenograft grown in the orthotopic site.

[10] = tested on: C26 colon tumors; assay: C26 colon tumors grown in the flank of CDF-1 mice; assay type: in vivo
[11] = tested on: HT-29 colon carcinoma; assay: Staged human tumor xenograft, HT-29; assay type: in vivo; conditions: oral 75 mg/kg/d QD, d 10-14, 20-24
Excerpt: as §12

[12] = tested on: Calu-6 lung carcinoma; assay: Staged human tumor xenograft, Calu-6; assay type: in vivo; conditions: oral 75 mg/kg/d QD, d 10-14, 20-24
Excerpt: as §12

[13] = Clinical single dose and 5-day repeated dose study in 57 cancer subjects; assay type: in vivo, human
Method: (2-((4-hydroxyphenyl)amino)pyrid-3-yl)-4-methoxybenzenesulfonamide was evaluated in 57 cancer subjects in single dose (16 subjects) and 5-day repeated dose regimens (41 subjects). The doses administered in the single dose segment were 80 to 480 mg/m^2/day. In the 5-day repeated dose regimen (2-((4-hydroxyphenyl)amino)pyrid-3-yl)-4-methoxybenzenesulfonamide was given at 30 to 240 mg/m^2/day for a single cycle. […] Adverse drug reactions from the single dose and 5-day repeated dose segments included nausea and vomiting, diarrhea, epigastric pain, ileus and evidence of peripheral neuropathy. For the single dose segment, the dose limiting toxicity (DLT) was Grade 3 peripheral neuropathy in 1 of 5 subjects at 480 mg/m^2/day. In the 5-day repeated dose regimen the dose limiting toxicities were Grade 3 peripheral neuropathy in 1 of 4 subjects at 210 mg/m^2/day and Grade 4 intestinal paralysis in 1 of 4 subjects at 210 mg/m^2/day and in 1 of 6 subjects at 240 mg/m^2/day.

[14] = Clinical 21-day QD regimen, MTD determination; assay type: in vivo
[15] = Clinical safety review, adverse events by grade; assay type: in vivo, human
Method: For 134 patients tested, at doses of about 200 mg QD, 250 mg QD, 300 mg QD, 125 mg BID, 150 mg BID, and 175 mg BID, 16 reported anemia, of which 11 were Grades I or II and 5 were Grades (III or IV); 1 reported Grade I or II alpoecia; 8 reported Grade I or II neutropenia; and none reported fluid retention, for which Grade I is defined as mild, Grade II is defined as moderate, Grade III is defined as severe, Grade IV is defined as life threatening.

[16] = molecular target: biotinylated bovine brain tubulin; conditions: competition of [3H]colchicine
[17] = tested on: Calu-6 lung; assay: Calu-6 lung subcutaneous flank xenografts in male nude mice, HPM with cisplatin (Example 6); assay type: in vivo; conditions: 10 mg/kg/day i.p., q.d × 1
Method: In a non-small cell lung cancer study, tumor cells were inoculated s.c. into male nude mice on day 0. On day 10, mice bearing established tumors were size matched at about 233 mm^3 and placed into the following groups: • 1. […]., 5 days on, 5 days off ×2) • 2. PM-75 mg/kg/day (p.o., q.d., 5 days on, 5 days off×2) • 3. PM-0 mg/kg/day (p.o., q.d., 5 days on, 5 days off ×2) • 4. […] Cisplatin 0 mg/kg/day (ip, qd ×1) • 6. […] Combination Therapy Vehicles

[18] = 5-day repeated dose regimen, 210 mg/m^2/day
[19] = 134 patients, 200-300 mg QD, 125-175 mg BID

In the case of CC(=O)O[C@@]12CO[C@@H]1C[C@H](O)[C@@]1(C)C(=O)[C@H](O)C3=C(C)[C@@H](OC(=O)[C@H](O)[C@@H](NC(=O)OC(C)(C)C)c4ccccc4)C[C@@](O)([C@@H](OC(=O)c4ccccc4)[C@H]21)C3(C)C [docetaxel], the “% TGD^a: median % TGD increase compared to vehicle treated controls in time to 1 cc” value [1] is reported as 67*** %, the MTD ([2]; intravenous, docetaxel on a q.10d.×2 schedule, mice) is reported as 25 mg/kg/day and the maximum wt loss [3] is reported as 8%.

For CC[C@]1(O)C[C@H]2CN(CCc3c([nH]c4ccccc34)[C@@](C(=O)OC)(c3cc4c(cc3OC)N(C=O)[C@H]3[C@@](O)(C(=O)OC)[C@H](OC(C)=O)[C@]5(CC)C=CCN6CC[C@]43[C@@H]65)C2)C1 [vincristine, reference compound], the “efficacy in inhibiting tumor growth” value [4] was “not efficacious”, the ILS [5] was 17% and the activity [6] was “lacked activity”.

For COc1ccc(S(=O)(=O)Nc2cccnc2Nc2ccc(O)cc2)cc1 [ABT-751, N-(2-((4-Hydroxyphenyl)amino)pyridin-3-yl)-4-methoxybenzenesulfonamide], the MTD ([7]; 7-day QD regimen) was 250 mg, the “dose limiting toxicities of peripheral neuropathy/ileus, subjects” value ([7]; human, in vivo, 7 days) was 2 of 6 and the “antitumor activity compared to single agent alone” value [8] was “increase in antitumor activity”. For the same molecule, the “% T/C” value ([9]; oral 50 mg/kg/d QD, d 1-21) was 46%, the “% T/C” value ([9]; oral 75 mg/kg/d QD, d 10-14, 20-24) was 33% and the “% T/C” value ([9]; oral 100 mg/kg/d QD, d 10-14, 20-24) was 25%. The antitumor activity ([10]; 5-day schedule) was “only marginally active”, the antitumor activity ([10]; extended dosing, equivalent to BCNU at the MTD) was “significant antitumor response” and the “% ILS” value ([4]; 50 mg/kg/d PO, QD, days 1-8) was 34%. For the same molecule, the “T/C (no. trials)” value ([4]; 50 mg/kg/d PO, QD, days 1-8) was 50(2), the “efficacy in inhibiting tumor growth” value [4] was “effective in inhibiting tumor growth” and the “% ILS” value [11] was 50%. For the same molecule, the “% ILS” value [12] was 58%, the “dose limiting toxicity: Grade 3 peripheral neuropathy, subjects” value [13, 18] was 1 of 4 and the “dose limiting toxicity: Grade 4 intestinal paralysis, subjects” value [13, 18] was 1 of 4. The “dose limiting toxicity: Grade 4 intestinal paralysis, subjects” value ([13]; 5-day repeated dose regimen, 240 mg/m^2/day) was 1 of 6, the AUC versus dose ([13]; range of 30 to 480 mg/m^2/day) was “increased proportionally with dose” and the accumulation ([13]; range of 30 to 480 mg/m^2/day) was “no apparent accumulation”. For the same molecule, the “dose limiting toxicity: Grade 3 peripheral neuropathy, subjects” value ([13]; single dose segment, 480 mg/m^2/day) was 1 of 5, the MTD ([14]; QD regimen given for 21 days) was 200 mg and the “dose limiting toxicities of fatigue, anorexia and suspect small bowel obstruction, subjects” value ([14]; human, in vivo, 21 days) was 2/3. For the same molecule, the “ILS (percent increase in life span)” value ([5]; 150 mg/kg orally once a day for 5 days) was 42%, the “approximate MTD” value ([5]; orally once a day for 5 days) was about 150 mg/kg and the “patients who reported Grade I or II alopecia” value [15, 19] was 1. The “patients who reported Grade I or II neutropenia” value [15, 19] was 8, the “patients who reported anemia” value [15, 19] was 16 and the “patients who reported fluid retention” value [15, 19] was “none”. The “patients with anemia of Grades I or II” value [15, 19] was 11, the “patients with anemia of Grades III or IV” value [15, 19] was 5 and the “myelosuppression, renal or hepatic toxicity” value ([15]; review of the safety data of the three studies) was “no significant myelosuppression, renal or hepatic toxicity”. For the same molecule, the “T/C, mean tumor volume at day 13” value ([6]; day 13 vs vehicle control) was 58%, the “ILS (delay in tumor growth)” value ([6]; in vivo) was 32% and the MTD ([2]; po, HPM orally (q.d.×5, 5 days off)×2, mice) was 100 mg/kg/day.

For O=P1(N(CCCl)CCCl)NCCCO1 (centres unmarked) [cyclophosphamide], the “response of the model to the drug” value [5] was “sensitive”.

Work on CC[C@]1(O)C[C@@H]2CN(CCc3c([nH]c4ccccc34)[C@@](C(=O)OC)(c3cc4c(cc3OC)N(C)[C@H]3[C@@](O)(C(=O)OC)[C@H](OC(C)=O)[C@]5(CC)C=CCN6CC[C@]43[C@@H]65)C2)C1 [vinblastine] yielded a Ki [16] of over 100 µM.

With N.N.[Cl][Pt][Cl] [Cisplatin, cisplatin] the “% TGD^a: median % TGD increase compared to vehicle treated controls in time to 1 cc” value [17] was 71*** %.

COc1cccc2c1C(=O)c1c(O)c3c(c(O)c1C2=O)C[C@@](O)(C(=O)CO)C[C@@H]3O[C@H]1C[C@H](N)[C@H](O)[C@H](C)O1 [doxorubicin] showed an ILS [5] of 13%.

With CC(=O)O[C@H]1C(=O)[C@@]2(C)[C@H]([C@H](OC(=O)c3ccccc3)[C@]3(O)C[C@H](OC(=O)[C@H](O)[C@@H](NC(=O)c4ccccc4)c4ccccc4)C(C)=C1C3(C)C)[C@]1(OC(C)=O)CO[C@@H]1C[C@@H]2O [paclitaxel, reference compound] the antitumor activity ([10]; comparator, dose not given) was “not efficacious”, the “efficacy in inhibiting tumor growth” value [4] was “not efficacious” and the “response of the model to the drug” value [5] was “resistant”. The activity [6] was “lacked activity”.
